How the values were obtained:
APOBEC3G [1] = assay: Western blot of APOBEC3G in transfected 293T cell lysates; format: cell-based, human; details: 293T cells, pNL-Luc-E-R-, pVSV-G, APOBEC3G-HA; 3.125-50 μM; 24 hours post-drug
Procedure: (§1) To determine the effect of Vif inhibitor 1 on expression of Vif and APOBC3G, 293T cells were transfected with pNL-Luc-E-R-, pVSV-G, and 15 fmoles APOBEC3G-HA. 4 hours post-transfection, the cells were treated with 3.125, 6.25, 12.5, 25, 50 μM Vif inhibitor 1 or DMSO equivalent as a control. Twenty-four hours post-drug addition, 293T total cell lysates (15 ug) were prepared, and protein lysates examined for APOBEC3G, Vif and, cyclin T1.

APOBEC3F = assay: APOBEC3F-HA level co-expressed with pNL4-3-LucE-R-, Western blot; format: cell-based; details: 3.75, 7.5, 15 or 30 fmoles APOBEC3F-HA; 5 uM
Procedure: (§2) To evaluate the effect of Vif inhibitor 1 on levels of APOBEC3G and APOBEC3F proteins, a dose-response experiment was performed. pNL4-3-LucE-R- was co-expressed with 3.75, 7.5, 15, or 30 fmoles APOBEC3G-HA (or APOBEC3F-HA) in the absence (DMSO) or presence (5 uM) of Vif inhibitor 1. The pNL4-3-LucE-R- ΔVif with the same amounts of APOBEC3G or F in the presence of DMSO were used as controls. APOBEC3G or APOBEC3F expression was confirmed by Western blot using an α HA anti body, with cyclin T1 used as the internal control.

pNL-Luc-E-R- virus = assay: Infectivity of virus from treated producer cells on 293T cells; format: cell-based, HIV-1; details: 293T cells infected 48 hours with 1 ng virus; producer cells treated with 3.125-50 μM
Procedure: Infectivity was determined by infecting 293T cells for 48 hours with 1 ng virus produced from the producer cells in the experiments shown in FIG. 21A. The infectivity of the sample of virus produced without APOBEC3G was normalized to 100%, and data was representative of three independent experiments.

pNLA1-YFP (Vif activity) = biological target: T1, pNLA1-YFP (Vif activity) (Human immunodeficiency virus type 1 group M subtype B, UniProt P69723); assay: pNLA1-YFP fluorescence in transfected 293T cells; format: cell-based, HIV-1; details: 3.125-50 μM, with or without 15 fmoles pAPOBEC3G-HA, 24 hours
T1 construct: YFP; expressed in transfected cells; host or cells: 293T cells
Procedure: 293T cells transfected with 50 fmoles pNLA1-YFP or pNLA1-YFP with 15 fmoles pAPOBEC3G-HA were treated 4 HRS post-transfection with 3.125, 6.25, 12.5, 25, 50 μM Vif inhibitor 1 or DMSO equivalent (0). Twenty-four hours post-drug addition, 293T total cell lysates were prepared and normalized to equal protein amounts prior to being monitored, in triplicate, for YFP fluorescence. Curve fits for full dose responses of Vif inhibitor 1 are shown, and calculation of “% Vif activity” for concentration of compound Vif inhibitor 1 was determined using Grafit software.

[2] = system: HIV-1 (X4-tropic HIV-1 variant (HIV-1LAI)); assay: Dose-response of RT activity in HIV-1 infected H9 cells; format: cell-based; details: H9 cells infected with HIV-1LAI; for RT activity / infectivity, dose response: 0, 1, 5, 10, 25 or 50 μM
Procedure: To evaluate the efficacy of Vif inhibitor 1 on RT activity, a dose-response experiment was conducted in infected H9 cells.
Briefly, H9 cells plated at 2×10^5 per well in a 24 well plate were treated overnight with DMSO, plus 0, 1, 5, 10, 25 or 50 μM Vif inhibitor 1 (all at 0.5% DMSO) then infected with HIV-1 (X4-tropic HIV-1 variant (HIV-1LAI)) at 2×10^5 cpm RT per well. All cells were maintained in the presence of DMSO or Vif inhibitor 1 for 14-21 days and viral replication monitored by measurement of reverse transcriptase activity in culture supernatants every second day. Calculation of % relative infectivity was determined on day 7, which was previously determined to be the peak of viral infectivity. Range correction involved fitting cpm data to a 2 parameter equation where the lower limit is 0, i.e. background correction, and the upper data limit is 100, i.e. the data is range corrected. Grafit software was used for the curve fit and calculation of the I.C.50 value.

APOBEC3G [3] = assay: APOBEC3G-HA level co-expressed with pNL4-3-LucE-R-, Western blot; format: cell-based, human; details: 3.75, 7.5, 15 or 30 fmoles APOBEC3G-HA; 5 uM
Procedure: as §2

Vif [4] = biological target: T2, Vif (Human immunodeficiency virus type 1 group M subtype B, UniProt P12504); assay: Western blot of Vif in transfected 293T cell lysates; format: cell-based, HIV-1; details: 293T cells, pNL-Luc-E-R-, pVSV-G, APOBEC3G-HA; 3.125-50 μM; 24 hours post-drug
T2 construct: pNL4-3 (Vif) was used at 50 fmol, and APOBEC3G at 15 fmol; expressed in transfected cells
Procedure: as §1

Vif [5] = biological target: T2, Vif; assay: Vif protein levels in H9 versus MT4 cells infected with pNL4-3Luc-E-R-; format: cell-based, HIV-1; details: 50 μM; 48 hours
Procedure: To determine whether there was a difference in the effect of Vif inhibitor 1 on Vif protein levels in permissive versus non-permissive cells, H9 and MT4 cells were infected using a spinoculation procedure with the virus equivalent of 1 μg pNL4-3 Luc-E-R- or Δ Vif pNL4-3 Luc-E-R- (as measured using p24 ELISA). Immediately following infection, H9 or MT4 cells were washed and incubated in complete RPMI medium with 10% FCS containing DMSO (0.5%) or 50 μM Vif inhibitor 1 (also 0.5% DMSO) for 48 hours. H9 or MT4 total cell lysates were then prepared, and 20 μg of lysate was examined for the presence of cyclin T1, endogenous APOBEC3G, p24, and Vif, the latter two being indicative of virus infection.

Vif [6] = biological target: T2, Vif; assay: Vif protein levels in H9 cells infected with pNL4-3Luc-E-R-; format: cell-based, HIV-1; details: 12.5, 25 or 50 μM, 48 hours
Procedure: To evaluate the effect of Vif inhibitor 1 on levels of Vif protein, H9 cells were infected with pNL4-3Luc-E-R- using a spinoculation procedure with the virus equivalent of 1 μg pNL4-3 Luc-E-R- or Δ Vif pNL4-3 Luc-E-R- (as measured using p24 ELISA). […] H9 total cell lysates were then prepared, and 20 μg of lysate examined for the presence of cyclin T1, endogenous APOBEC3G, p24, and Vif, the latter two indicative of virus infection.

T2 sequence (P12504 whole entry): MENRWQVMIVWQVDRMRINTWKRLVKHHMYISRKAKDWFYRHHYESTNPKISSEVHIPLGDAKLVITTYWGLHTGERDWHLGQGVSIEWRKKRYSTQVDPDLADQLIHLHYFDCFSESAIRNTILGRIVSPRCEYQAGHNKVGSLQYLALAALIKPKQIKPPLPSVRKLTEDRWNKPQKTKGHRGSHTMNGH
T1 sequence (P69723 whole entry): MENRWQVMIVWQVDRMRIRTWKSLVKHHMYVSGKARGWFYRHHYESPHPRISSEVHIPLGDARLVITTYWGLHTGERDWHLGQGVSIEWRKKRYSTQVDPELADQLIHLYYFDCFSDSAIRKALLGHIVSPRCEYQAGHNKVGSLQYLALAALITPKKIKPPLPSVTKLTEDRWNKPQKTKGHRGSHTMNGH

COc1ccccc1NC(=O)c1ccccc1Sc1ccc([N+](=O)[O-])cc1 [Vif inhibitor 1, 2-(4-Nitrophenylthio)-N-(2-methoxyphenyl)benzamide]
APOBEC3G expression (APOBEC3G [1]): increases APOBEC3G expression | APOBEC3F level (APOBEC3F): increases | Infectivity of virus produced from treated producer cells (pNL-Luc-E-R- virus): decrease infectivity in a dose-dependent manner | pNLA1-YFP fluorescence (% Vif activity) (pNLA1-YFP (Vif activity)): dose-dependent decrease in pNLA1-YFP only in the presence of APOBEC3G | RT activity / infectivity, dose response [2]: inhibits RT activity in a dose dependent manner | RT activity / infectivity, dose response ([2]; listed as Vif Inhibitor 1): dose-dependent decrease in infectivity | IC50 ([2]; Human immunodeficiency virus 1, 168 h, 0-50 μM, determined on day 7, read-out: I.C.50 of RT activity (% relative infectivity)): ~6.4 µM | APOBEC3G level (APOBEC3G [3]): increases | Vif expression (Vif [4]): decreases Vif expression | Levels of Vif protein, non-permissive H9 versus permissive MT4 cells (Vif [5]): significantly reduces levels of Vif protein in non-permissive H9 cells compared to permissive MT4 cells | Levels of Vif protein in H9 cells (Vif [6]): significantly reduces levels of Vif protein

Source: patent publication US7754773B2, “Composition and synthesis of new reagents for inhibition of HIV replication” (priority 2005, dated 2010)
